# Experimental data taken from paper PMC6531005 (Science Advances, 2019).
# Legend:
# Type in all cases: biochemical
# CDK2 kinase = CDK2 kinase (Homo sapiens, UniProt P24941); test: enzymatic kinase inhibition assay, CDK2/cyclin E
# CDC7 kinase = CDC7 kinase (Homo sapiens, UniProt O00311); test: TR-FRET
# CDK9 = CDK9 (Homo sapiens, UniProt P50750); test: SelectScreen kinase selectivity panel
# Sequence of CDK9 (P50750 whole entry): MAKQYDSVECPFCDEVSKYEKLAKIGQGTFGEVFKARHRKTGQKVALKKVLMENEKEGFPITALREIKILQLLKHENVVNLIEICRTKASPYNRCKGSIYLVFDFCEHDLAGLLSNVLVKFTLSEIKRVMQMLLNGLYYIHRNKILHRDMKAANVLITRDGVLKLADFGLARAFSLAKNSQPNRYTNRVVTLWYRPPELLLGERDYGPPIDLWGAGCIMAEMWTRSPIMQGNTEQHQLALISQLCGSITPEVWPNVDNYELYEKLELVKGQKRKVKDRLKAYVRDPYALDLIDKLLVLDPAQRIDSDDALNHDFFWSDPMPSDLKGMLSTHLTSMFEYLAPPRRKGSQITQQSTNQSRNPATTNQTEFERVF
# Sequence of CDC7 kinase (O00311 whole entry): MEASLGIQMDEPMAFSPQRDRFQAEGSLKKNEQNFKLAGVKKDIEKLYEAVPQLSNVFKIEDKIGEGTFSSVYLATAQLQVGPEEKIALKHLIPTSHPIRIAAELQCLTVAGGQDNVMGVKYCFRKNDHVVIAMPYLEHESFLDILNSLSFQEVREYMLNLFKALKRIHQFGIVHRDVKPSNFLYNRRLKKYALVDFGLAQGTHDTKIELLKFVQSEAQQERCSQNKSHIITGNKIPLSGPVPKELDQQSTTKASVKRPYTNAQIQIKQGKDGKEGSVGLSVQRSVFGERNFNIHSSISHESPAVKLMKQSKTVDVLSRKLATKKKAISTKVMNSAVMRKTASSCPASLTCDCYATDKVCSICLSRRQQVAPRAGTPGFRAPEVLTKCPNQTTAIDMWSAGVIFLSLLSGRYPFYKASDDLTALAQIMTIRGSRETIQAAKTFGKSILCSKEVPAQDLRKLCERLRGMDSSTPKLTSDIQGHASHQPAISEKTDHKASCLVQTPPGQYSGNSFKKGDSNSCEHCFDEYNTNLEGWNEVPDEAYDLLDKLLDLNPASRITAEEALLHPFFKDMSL
# Sequence of CDC7 kinase (Q9UBU7 whole entry partner): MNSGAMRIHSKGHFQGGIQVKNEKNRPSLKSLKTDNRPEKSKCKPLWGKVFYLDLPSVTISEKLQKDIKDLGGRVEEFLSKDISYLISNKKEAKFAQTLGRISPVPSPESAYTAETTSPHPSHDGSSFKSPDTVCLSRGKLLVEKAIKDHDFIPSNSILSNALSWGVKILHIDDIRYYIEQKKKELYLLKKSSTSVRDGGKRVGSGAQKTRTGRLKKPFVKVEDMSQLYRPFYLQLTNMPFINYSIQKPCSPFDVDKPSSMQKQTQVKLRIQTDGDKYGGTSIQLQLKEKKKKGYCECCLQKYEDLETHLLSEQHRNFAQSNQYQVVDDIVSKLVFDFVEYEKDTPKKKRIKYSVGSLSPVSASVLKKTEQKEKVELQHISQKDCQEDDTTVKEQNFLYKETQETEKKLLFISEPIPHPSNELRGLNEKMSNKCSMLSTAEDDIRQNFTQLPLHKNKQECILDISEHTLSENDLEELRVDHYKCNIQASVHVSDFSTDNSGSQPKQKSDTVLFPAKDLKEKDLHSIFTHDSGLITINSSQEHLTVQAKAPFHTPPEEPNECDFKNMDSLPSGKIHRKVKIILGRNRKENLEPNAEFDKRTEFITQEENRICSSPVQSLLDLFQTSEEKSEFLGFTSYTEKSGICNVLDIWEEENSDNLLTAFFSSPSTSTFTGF
compound,measurement,setting,value
"Cc1n[nH]cc1-c1cc2nc([C@@H]3CC4CCN3CC4)[nH]c(=O)c2s1 [TAK-931, 2-[(2S)-1-azabicyclo[2.2.2]oct-2-yl]-6-(3-methyl-1H-pyrazol-4-yl)thieno[3,2-d]pyrimidin-4(3H)-one hemihydrate]",IC50,CDK2 kinase,6.3 µM
same,IC50,CDC7 kinase,< 0.0003 µM
same,SelectScreen kinase selectivity panel (fig. S1B),CDK9,"CDK9, which is the second high-affinity target of TAK-931 (fig. S1B)"
